Here are results for nine sequences from US8628781B2, “Prevention and treatment of cast nephropathy” (The UAB Research Foundation, priority 2010, dated 2014).

For test [1], the target named is T1, Tamm-Horsfall protein (Homo sapiens, UniProt P07911). Put plainly: Competitive ELISA: peptide inhibition of Tamm-Horsfall protein binding to immunoglobulin light chains bound in microtiter wells. The conditions noted are these: for inhibition of binding between Tamm-Horsfall protein and human light chains (in words): six human light chains (λ2, 3 and 5 and κ3, 6, and 7), FIG. 7; for inhibition of binding of Tamm-Horsfall protein to immunoglobulin light chain (in words): uncyclized and cyclized peptide, FIG. 5. The text has this: Peptides known to react with the Tamm-Horsfall protein in the yeast two-hybrid assay were synthesized, cyclized, and used as inhibitors in a competitive ELISA experiment. The peptides were cyclized by adding cysteine residues to the amino and carboxyl-terminal portions of the peptides and generating an intramolecular disulfide bridge (FIG. 4). Cyclization facilitates formation of the loop structure in solution. Both the linear and cyclized peptides inhibited the binding of the Tamm-Horsfall protein to the immunoglobulin light chains bound in the wells of the microtiter plate, but the efficiency of inhibition was increased by cyclization of the peptide inhibitor.
(§1) Mutation of the CDR3 sequence to disrupt the loop structure by substituting amino acid residues with phenyalanine confirmed that the secondary structure was an important determinant of binding (FIG. 6). The inhibitory capability of cyclized experimental (CLSADSSGSYLYVC (SEQ ID NO:32)) and control (CLSAFSFGFYLYVC (SEQ ID NO:33)) peptides were then compared in a competitive ELISA assay.
(In general: In an ELISA, binding on a coated surface is turned into a signal by an enzyme label.)

For test [2], the system named is Tamm-Horsfall protein. In words: Yeast two-hybrid assay of CDR3 inserts ligated between Framework 2 and Framework 3 of LKPBLL53. Format: binding, human. The note with it: FIG. 6, N=7.
Text: Addition of the framework regions permits each CDR3, which was ligated into the construct using Sma1 and BamH1, to achieve proper folding into a loop structure. […] The CDR3 domain of ITPBLL2 differed from the CDR3 domain of ITPBLL1 (SEQ ID NO:28) by only two amino acids (underlined), which were sufficient to inhibit formation of a loop structure, and, thus, binding to the Tamm-Horsfall protein. […] N=6 experiments for each group.
Among those CDR3 domains that were predicted to form a loop, affinity for the Tamm-Horsfall protein was strong and correlated with that observed using the intact VL from the parent light chain.
as §1

For test [3], the system named is rat model of cast nephropathy. In words: Rat model of cast nephropathy by administration of human kappa and lambda light chains. Format: in vivo. The conditions noted are these: rats given human kappa and lambda light chains. Here is the method: The competitor peptides, SEQ ID NO:1 and SEQ ID NO:2, have been used in a rat model of cast nephropathy, which employed administration of human kappa and lambda light chains. […] Rats were injected intraperitoneally with 40 mg of cyclized competitor peptide, SEQ ID NO:2 (pep), or vehicle alone (veh) just prior to intraperitoneal injection of 100 mg of human kappa or lambda light chain purified from patients who had multiple myeloma and kidney damage. On the following day, rats also received an additional injection of competitor peptides, SEQ ID NO:1 (20 mg) or vehicle. Rats were examined three days after the initial injection.

In test [4] the target is T1, Tamm-Horsfall protein. Put plainly: Competition studies of synthetic CDR3 peptide with light chains from myeloma patients for binding to Tamm-Horsfall protein. The conditions noted are these: six different immunoglobulin light chains from patients with myeloma and cast nephropathy. The text has this:
The yeast two-hybrid system was employed to determine the site on the immunoglobulin light chain that interacted with the Tamm-Horsfall protein. Using 248- and 787-base pair fragments of the Tamm-Horsfall protein, which contained the previously described immunoglobulin light chain-binding domain, the interaction with unique immunoglobulin light chains that represented a variety of the known isotypes of κ and λ immunoglobulin light chains was examined. […] While this was considered an advance, this peptide was not considered to bind avidly enough to the Tamm-Horsfall protein to serve as an effective inhibitor in vivo.

Entries after “also recorded” stand apart in the source; their conditions may differ. Bridges are numbered along the chain shown (N, C = ends). Where no end group is shown, it is not given here.

In the case of “CLSADSSGSYLYVC (disulfide 1-14 (inferred)) [cyclized experimental peptide]”, the “inhibition of binding between Tamm-Horsfall protein and human light chains (in words)” value in test [1] is on record as “completely prevented the binding; also recorded: very efficient inhibitor”.

For the sequence “CLSAFSFGFYLYVC (disulfide 1-14 (inferred)) [cyclized control peptide, reference compound]”, the “inhibition of binding between Tamm-Horsfall protein and human light chains (in words)” value in test [1] is given as “did not effectively inhibit binding”.

For LSADSSGSYLYV, the “interaction of wildtype and phenylalanine-mutated CDR3 sequence with Tamm-Horsfall protein (in words)” value (shortened to “interaction”) in test [2] was “interacted strongly”.

On to “LSADSSGSYLYVF [peptide 2, LSADSSGSYLYVF]”, for which the “inhibition of binding of Tamm-Horsfall protein to immunoglobulin light chain (in words)” value in test [1] is “inhibit binding”. Besides, the “effect on cast formation, acute renal failure and renal function (in words)” value in test [3] is “prevented cast formation and acute renal failure and improved renal function”.

As to “LSAFSFGFYLYV [ITPBLL86 CDR3 mutated with three phenylalanines]”, the “interaction” value in test [2] is recorded as “none of the mutated sequences interacted”.

For “LSAFSFGSYLYV [ITPBLL86 CDR3 mutated with two phenylalanines]”, in test [2], the “interaction” value is on record as “none of the mutated sequences interacted”.

Regarding “LSAFSSGSYLYV [ITPBLL86 CDR3 mutated with one phenylalanine]”, in test [2], the “interaction” value was “none of the mutated sequences interacted”.

For the sequence “MQGTHWPPLT [synthetic peptide identical to the CDR3 region of SSH23]”, the “competition with light chains for binding to Tamm-Horsfall protein (in words)” value in test [4] is given as “effectively competed”.

Consider “QSYDNTLSGSYVF [peptide 1, QSYDNTLSGSYVF]”, for which the “inhibition of binding of Tamm-Horsfall protein to immunoglobulin light chain (in words)” value in test [1] is listed as “inhibit binding”. For the same sequence, the “effect on cast formation, acute renal failure and renal function (in words)” value in test [3] was “prevented cast formation and acute renal failure and improved renal function”.
